Laboratory results: patent US20240368168A1, “SARM1 ENZYME ACTIVITY INHIBITOR AND APPLICATION THEREOF” (ARTIVILA BIOPHARMA, priority 2021, published 2024)
Counter-ions that a name gives are not always drawn.

Legend:
[1] = target: T1, dN-SARM1 protein (Homo sapiens, UniProt Q6SZW1); assay: In vitro biochemical assay for inhibiting SARM1 enzymatic activity (IC50), PC6 fluorescence method; conditions: 50 μM NAD, 50 μM PC6, 50 μM NMN activator
T1 construct: the N-terminal mitochondrial localization signal peptide of SARM1 was removed
T1 sequence (Q6SZW1 28-724): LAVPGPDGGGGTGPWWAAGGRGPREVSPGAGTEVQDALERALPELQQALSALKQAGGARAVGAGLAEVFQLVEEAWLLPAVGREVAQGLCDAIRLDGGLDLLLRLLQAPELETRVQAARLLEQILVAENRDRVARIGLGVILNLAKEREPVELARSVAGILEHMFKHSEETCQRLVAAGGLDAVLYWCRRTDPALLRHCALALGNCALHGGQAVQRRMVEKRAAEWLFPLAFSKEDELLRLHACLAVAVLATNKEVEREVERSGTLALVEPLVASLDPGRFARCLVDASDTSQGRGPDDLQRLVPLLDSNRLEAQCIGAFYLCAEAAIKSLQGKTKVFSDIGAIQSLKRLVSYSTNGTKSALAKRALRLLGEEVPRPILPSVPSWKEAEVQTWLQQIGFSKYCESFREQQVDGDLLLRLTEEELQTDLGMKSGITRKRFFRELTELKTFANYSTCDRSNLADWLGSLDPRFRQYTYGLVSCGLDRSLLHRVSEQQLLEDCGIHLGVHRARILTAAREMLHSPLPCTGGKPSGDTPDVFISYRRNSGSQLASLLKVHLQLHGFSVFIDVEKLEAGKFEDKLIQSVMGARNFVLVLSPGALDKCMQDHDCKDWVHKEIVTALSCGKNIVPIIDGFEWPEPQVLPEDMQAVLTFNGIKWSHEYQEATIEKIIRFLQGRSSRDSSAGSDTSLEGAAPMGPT
Summary of the method: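 Activity read as the rate of PC6 fluorescence change (390 nm excitation, 520 nm emission) over a 30 min room-temperature reaction containing final 50 μM each of NAD, PC6 and NMN activator. Enzyme, 0.05 μg/ml dN-SARM1 in 50 mM Tris-HCl pH 7.5, first incubated 10 min with compound diluted serially from 200 μM; IC50 calculated.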

[2] = target: T2, SARM1 protein in iSARM1 (HEK293) cells (Homo sapiens, UniProt Q6SZW1); assay: Inhibitory activity in inducible SARM1 overexpressing cell line, intracellular cADPR level; type: cell-based; conditions: activator CZ-48 100 μM, cADPR content
T2 construct: The full-length SARM1 was synthesized into the pUC57 plasmid by WZ Biosciences Inc., and PCR was performed using pUC57-SARM1 as a DNA template
T2 sequence (Q6SZW1 28-724): T1 sequence (Q6SZW1 28-724)
Protocol: In this example, the gene sequence of SARM1 was amplified using PCR, and constructed into pInducer20-neo plasmid. pInducer20-SARM1 virus was packaged in a liposome and infected HEK293 to obtain an inducible SARM1-overexpressing cell line, which was labeled as iSARM1 (HEK293). The specific preparation was as follows:
First, a 96-well culture plate was treated with 0.05 mg/ml polylysine for 5 minutes and washed once with PBS. 3×10^4 iSARM1 (HEK293) cells were plated into the 96-well plate and cultured overnight in a 37° C. and 5% incubator. The next day, the cells were added with an inhibitor with a final concentration of 50 μM, incubated in the incubator for 1.5 hours, added with activator CZ-48 with a final concentration of 100 μM, and incubated for 16 hours. Meanwhile, the cells without adding CZ-48 or without adding drug were set as control group. Finally, the intracellular cADPR level was detected to represent the activity of SARM1, and the inhibition rate of SARM1 in cells by 50 μM inhibitor was calculated.
The cADPR measurement was performed as follows. First, the cells were washed once with PBS, and added with 150 μl of pre-cooled 0.6M perchloric acid (PCA) to quickly lyse the cells and precipitate the protein. The PCA supernatant was transferred to a 1.5 ml centrifuge tube. The protein in the culture medium was dissolved again with 100 μl of 1M NaOH. The supernatant was added with 0.5 ml of organic reagent mixture (trioctylamine:chloroform=1:3) to extract PCA from water. After sufficient shaking, the mixture was centrifuged at 12,000 rpm for 10 minutes. The solution was divided into 3 layers: the upper aqueous phase, containing the small molecules of interest; the lower organic phase, in which PCA was dissolved; and a thin protein layer between the upper and lower layers. The upper layer was transferred to a new centrifuge tube, added with 1M Tris-Mg at a ratio of 1:100 (1M Tris (pH 8.0): 1M MgCl2=9:1), added with NADase at a ratio of 1:250, and treated at 37° C. overnight to remove NAD^+ from the mixed solution. After the treatment was completed, the mixed solution was filtered using Millipore's 10 K 96-well filter plate to remove NADase.
The cADPR content in the solution was determined through Cycling analysis method. The specific steps were as follows: 20 μl of the sample to be tested or the cADPR standard was taken and added to a 96-well opaque white plate. Preparation of reaction solution: 9.6 ml of PBS (pH 7.4), 200 μl of ethanol, 150 μl of 1 mg/ml AD, 10 μl of 10 mM FMN, 5 μl of 18 mg/ml Diaphorase, 10 μl of 10 mM Resazurin, and 100 μl of 1M Nam. Half of the reaction solution was divided and added with 0.2 μg/ml cyclase. The reaction solution without adding cyclase was used as control experiment. Each sample was divided into two groups, 3 replicates in each group. The reaction solutions containing or not containing cyclase were added to each group to perform the reaction. The reaction kinetic curve within 30 minutes was recorded (Ex:Em=544/599). The average slope of the reaction was calculated. Conversion was performed according to cADPR standard to obtain the accurate cADPR content. A curve of intracellular cADPR content vs corresponding inhibitor concentration was plotted. The half inhibitory concentration of the inhibitor was calculated.

`CN(C(=O)OC(C)(C)C)c1ccc2ncc(-c3cccc(NC(=O)COCCOCCOCC(=O)Nc4cccc(-c5cnc6ccc(N(C)C(=O)OC(C)(C)C)cn56)c4)c3)n2c1` [Compound 121, ((((2,2′-((oxybis(ethane-2,1-diyl))bis(oxy))bis(acetyl))bis(azadiyl))bis(3,1-phylene))bis(imidazo[1,2-a]pyridin-3,6-diyl))bis(tert-butyl (methyl)carbamate)] showed an IC50 [1] of less than 1000 nM and an EC50 [2] of less than 1000 nM.

For `CN(C(=O)OC(C)(C)C)c1ccc2ncc(-c3cccc(C(=O)NC[C@@H]4CCO4)c3)n2c1` [Compound 246], the IC50 [1] was 1000 to 10000 nM and the EC50 [2] was 1000 to 10000 nM.

`CN(C(=O)OC(C)(C)C)c1ccc2ncc(-c3cccc4ncccc34)n2c1` [Compound 262] was tested, and the IC50 [1] was less than 1000 nM and the EC50 [2] was less than 1000 nM.

`CNc1ccc2ncc(-c3ccc(S(N)(=O)=O)cc3)n2c1` [Compound 63, 4-(6-(methylamino)imidazo[1,2-a]pyridin-3-yl)benzenesulfonamide] gave an IC50 [1] of 1000 to 10000 nM and an EC50 [2] of 1000 to 10000 nM.

`CN(C(=O)OC(C)(C)C)c1ccc2ncc(-c3ccccc3)n2c1` [Compound 8] showed an IC50 [1] of 1000 to 10000 nM and an EC50 [2] of 1000 to 10000 nM.

With `CN(C(=O)OC(C)(C)C)c1ccc2ncc(-c3ccc(S(N)(=O)=O)cc3)n2c1` [Compound 6] the IC50 [1] was 1000 to 10000 nM and the EC50 [2] was less than 1000 nM.

Work on `CN(C(=O)OC(C)(C)C)c1ccc2ncc(-c3nn4ccnc4s3)n2c1` [Compound 168] yielded an IC50 [1] of less than 1000 nM and an EC50 [2] of 1000 to 10000 nM.

In the case of `c1ccc(-c2cnc3ccc(NC4CCOC4)cn23)cc1` (stereo not drawn) [Compound 87, 3-phenyl-N-(tetrahydrofuran-3-yl)imidazo[1,2-a]pyridin-6-amine], the IC50 [1] is reported as less than 1000 nM and the EC50 [2] is reported as 1000 to 10000 nM.

`CNc1ccc2ncc(-c3cccc(NC(=O)COCCOCC(=O)N[C@H](C(=O)N4C[C@H](O)C[C@H]4C(=O)NCc4ccc(-c5scnc5C)cc4)C(C)(C)C)c3)n2c1` [Compound 114, (2S,4R)-1-((S)-3,3-dimethyl-2-(2-(2-(2-((3-(6-(methylamino)imidazo[1,2-a]pyridin-3-yl)phenyl)amino)-2-oxoethoxy)ethoxy)acetamido)butyryl)-4-hydroxy-N-(4-(4-methylthiazol-5-yl)benzyl)pyrrolidin-2-carboxamide hydrochloride] was tested, and the IC50 [1] was less than 1000 nM and the EC50 [2] was 1000 to 10000 nM.

With `C=CCN(C(=O)OC(C)(C)C)c1ccc2ncc(-c3cccc(NC(=O)C4CCOCC4)c3)n2c1` [Compound 213, tert-butyl allyl(3-(3-(tetrahydro-2H-pyran-4-carboxamido)phenyl)imidazo[1,2-a]pyridin-6-yl)carbamate] the IC50 [1] was 1000 to 10000 nM and the EC50 [2] was less than 1000 nM.

In the case of `CNc1ccc2ncc(-c3cccc4[nH]ccc34)n2c1` [Compound 255], the IC50 [1] is reported as less than 1000 nM and the EC50 [2] is reported as 1000 to 10000 nM.

For `CN(C(=O)OC(C)(C)C)c1ccc2ncc(-c3cccc4ncsc34)n2c1` [Compound 167], the IC50 [1] was less than 1000 nM and the EC50 [2] was less than 1000 nM.

In the case of `CNc1ccc2ncc(-c3cccc(OCCOCc4ccccc4)c3)n2c1` [Compound 157], the IC50 [1] is reported as 1000 to 10000 nM and the EC50 [2] is reported as 1000 to 10000 nM.

In the case of `CN(C(=O)OC(C)(C)C)c1ccc2ncc(-c3cccnc3)n2c1` [Compound 15], the IC50 [1] is reported as 1000 to 10000 nM and the EC50 [2] is reported as 1000 to 10000 nM.

Work on `CNc1ccc2ncc(-c3cccc(NC(=O)c4ccccc4)c3)n2c1` [Compound 251] yielded an IC50 [1] of 1000 to 10000 nM and an EC50 [2] of 1000 to 10000 nM.

For `CNc1ccc2ncc(-c3cccc(C(=O)OC)c3)n2c1` [Compound 273], the IC50 [1] was 1000 to 10000 nM and the EC50 [2] was 1000 to 10000 nM.

Work on `CNc1ccc2ncc(-c3cccc(CNC(=O)c4ccccc4)c3)n2c1` [Compound 253] yielded an IC50 [1] of 1000 to 10000 nM and an EC50 [2] of 1000 to 10000 nM.

For `CNc1ccc2ncc(-c3cccc(NC(=O)C4CCCO4)c3)n2c1` (stereo not drawn) [Compound 236], the IC50 [1] was less than 1000 nM and the EC50 [2] was 1000 to 10000 nM.

`CN(C(=O)OC(C)(C)C)c1ccc2ncc(-c3cccc(O)c3)n2c1` [Compound 272] was tested, and the IC50 [1] was 1000 to 10000 nM and the EC50 [2] was 1000 to 10000 nM.

`C=CCN(C(=O)OC(C)(C)C)c1ccc2ncc(-c3cccc(N)c3)n2c1` [Compound 211, tert-butyl allyl(3-(3-aminophenyl)imidazo[1,2-a]pyridin-6-yl)carbamate] was tested, and the IC50 [1] was 1000 to 10000 nM and the EC50 [2] was less than 1000 nM.

In the case of `CC(C)(C)OC(=O)N(C/C=C/c1cccc(N)c1)c1ccc2ncc(-c3cccc(N)c3)n2c1` [Compound 212, tert-butyl (E)-(3-(3-aminophenyl)allyl)(3-(3-aminophenyl)imidazo[1,2-a]pyridin-6-yl)carbamate], the IC50 [1] is reported as 1000 to 10000 nM and the EC50 [2] is reported as less than 1000 nM.

For `CN(C(=O)OC(C)(C)C)c1ccc2ncc(-c3cccc(C(N)=O)c3)n2c1` [Compound 7], the IC50 [1] was 1000 to 10000 nM and the EC50 [2] was 1000 to 10000 nM.

Compound `CNc1ccc2ncc(-c3ccccc3)n2c1` [Compound 65, N-methyl-3-phenylimidazo[1,2-a]pyridin-6-amine] has an IC50 [1] of less than 1000 nM and an EC50 [2] of 1000 to 10000 nM.

`CN(C(=O)OC(C)(C)C)c1ccc2ncc(-c3cc4cc[nH]c4cn3)n2c1` [Compound 161, tert-butyl (3-(1H-pyrrolo[2,3-c]pyridin-5-yl)imidazo[1,2-a]pyridin-6-yl)(methyl)carbamate] showed an IC50 [1] of less than 1000 nM and an EC50 [2] of 1000 to 10000 nM.

In the case of `COc1ccc(-c2cnc3ccc(N(C)C(=O)OC(C)(C)C)cn23)cc1` [Compound 14], the IC50 [1] is reported as 1000 to 10000 nM and the EC50 [2] is reported as 1000 to 10000 nM.

Work on `CC(C)OCCOCC(=O)Nc1cccc(-c2cnc3ccc(N(C)C(=O)OC(C)(C)C)cn23)c1` [Compound 247] yielded an IC50 [1] of 1000 to 10000 nM and an EC50 [2] of less than 1000 nM.

`CC(C)(C)OC(=O)N(C/C=C/c1cccc(NC(=O)C2CCOCC2)c1)c1ccc2ncc(-c3ccccc3)n2c1` [Compound 221] was tested, and the IC50 [1] was 1000 to 10000 nM and the EC50 [2] was less than 1000 nM.

`Cc1ncsc1-c1ccc(CNC(=O)[C@@H]2C[C@@H](O)CN2C(=O)[C@@H](NC(=O)COCCOCCOCC(=O)Nc2cccc(-c3cnc4ccc(N(C)C(=O)OC(C)(C)C)cn34)c2)C(C)(C)C)cc1` [Compound 119, Tert-butyl (3-(3-((S)-13-((2S,4R)-4-hydroxy-2-((4-(4-methylthiazol-5-yl)benzyl)carbamoyl)pyrrolidin-1-carbonyl)-14,14-dimethyl-11-oxo-3,6,9-trioxa-12-azaglutaramide)phenyl)imidazo[1,2-a]pyridin-6-yl)(methyl)carbamate] gave an IC50 [1] of less than 1000 nM and an EC50 [2] of 1000 to 10000 nM.

Compound `CN(C(=O)OC(C)(C)C)c1ccc2ncc(-c3cccc(NC(=O)COCCOCc4ccccc4)c3)n2c1` [Compound 244] has an IC50 [1] of 1000 to 10000 nM and an EC50 [2] of less than 1000 nM.

Compound `CNc1ccc2ncc(-c3cccc(OC)c3)n2c1` [Compound 70] has an IC50 [1] of 1000 to 10000 nM and an EC50 [2] of 1000 to 10000 nM.
